In BindingDB's records for patent US8802711 (Abbvie, 2014):

Molecular target: Transient receptor potential cation channel subfamily V member 1 (Homo sapiens, UniProt Q8NER1)
Assay: FLIPR Assay
Procedure: All compounds were tested over a 12-point one-third-log concentration range. Compound stocks, 10 mM, were prepared in DMSO, and diluted serially across a 384-well plate using a Bravo BenchCel workstation (Agilent Technologies, Santa Clara, Calif.).

Transient receptor potential cation channel subfamily V member 1, sequence (Q8NER1 whole entry): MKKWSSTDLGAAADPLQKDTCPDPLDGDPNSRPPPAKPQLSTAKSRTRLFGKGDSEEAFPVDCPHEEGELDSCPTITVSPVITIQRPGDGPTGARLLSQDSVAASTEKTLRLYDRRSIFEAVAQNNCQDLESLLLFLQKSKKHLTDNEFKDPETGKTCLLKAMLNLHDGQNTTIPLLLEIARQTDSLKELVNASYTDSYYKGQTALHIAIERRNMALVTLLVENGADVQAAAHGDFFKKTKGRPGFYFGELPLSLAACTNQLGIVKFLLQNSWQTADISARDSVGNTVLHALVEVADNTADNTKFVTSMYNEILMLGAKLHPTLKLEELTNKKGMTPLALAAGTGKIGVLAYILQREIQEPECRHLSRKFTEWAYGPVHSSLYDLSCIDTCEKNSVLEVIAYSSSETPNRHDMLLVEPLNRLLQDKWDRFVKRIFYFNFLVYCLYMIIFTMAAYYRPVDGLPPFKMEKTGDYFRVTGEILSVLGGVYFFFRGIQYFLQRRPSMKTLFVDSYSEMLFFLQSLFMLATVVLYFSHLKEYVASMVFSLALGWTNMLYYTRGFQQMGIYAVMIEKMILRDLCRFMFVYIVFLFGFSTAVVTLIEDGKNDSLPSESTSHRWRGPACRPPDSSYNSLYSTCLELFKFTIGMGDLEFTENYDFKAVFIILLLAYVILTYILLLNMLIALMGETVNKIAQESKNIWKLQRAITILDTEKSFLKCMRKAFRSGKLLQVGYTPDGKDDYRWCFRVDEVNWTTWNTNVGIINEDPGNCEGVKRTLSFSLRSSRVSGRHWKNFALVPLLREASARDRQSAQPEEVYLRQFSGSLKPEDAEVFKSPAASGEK

**Q.** With `Cc1cccnc1N1CC=C(C(=O)Nc2ccc(C(=O)NC(F)(F)F)cc2)CC1` [US8802711, L] as the compound, how does the IC50 read?
**A.** 100 nM
